In PubChem BioAssay (NCI):
Where “and” joins values, the source holds several entries; their conditions need not be identical. Identical values can stand only once.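 Exposure lasted 48 hours, with cells grown in 96-well plates and compounds tested at five concentrations. TGI: concentration producing complete growth inhibition.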

Key:
Experiment in all cases: DTP human tumour cell line panel, 48 h
SF-295 CNS = test system: SF-295 CNS
NCI-H522 lung = test system: NCI-H522 lung
UO-31 renal = test system: UO-31 renal
MOLT-4 leukemia = test system: MOLT-4 leukemia
MDA-MB-435 = test system: MDA-MB-435
MDA-N = test system: MDA-N
UACC-257 melanoma = test system: UACC-257 melanoma
COLO 205 colon = test system: COLO 205 colon
BT-549 breast = test system: BT-549 breast
CCRF-CEM leukemia = test system: CCRF-CEM leukemia
EKVX NSCLC = test system: EKVX NSCLC

| Compound | TGI (SF-295 CNS) | TGI (NCI-H522 lung) | TGI (UO-31 renal) | TGI (MOLT-4 leukemia) | TGI (MDA-MB-435) | TGI (MDA-N) | TGI (UACC-257 melanoma) | TGI (COLO 205 colon) | TGI (BT-549 breast) | TGI (CCRF-CEM leukemia) | TGI (EKVX NSCLC) |
| --- | --- | --- | --- | --- | --- | --- | --- | --- | --- | --- | --- |
| CN(CCn1cnc2c1c(=O)n(C)c(=O)n2C)C1CCCCC1 | > 100 µM | > 100 µM | > 100 µM | > 100 µM | > 100 µM | > 100 µM | > 100 µM | > 100 µM | > 100 µM | > 100 µM | > 100 µM |
| CC(=O)OC(/C=C/c1ccccc1)P1(=O)N(CC(C)(C)C)[C@@H]2CCCC[C@H]2N1CC(C)(C)C (some centres undefined) | 25.4 µM and 14.9 µM | 13.3 µM and 12.8 µM | 19.6 µM and 17 µM | 17.1 µM and 14.7 µM | 28.8 µM and 22.1 µM | 23.1 µM and 21 µM | 13.2 µM and 11.6 µM | 13.2 µM and 10.8 µM | 28.5 µM and 25.9 µM | 47.8 µM and 34.1 µM | 19.1 µM and 18.9 µM |
| CCOC(=O)C1=CNC(C(=O)OCC)C1c1cccn1-c1ccc(Cl)cc1[N+](=O)[O-] (centres undefined) | 31.3 µM | 35.2 µM | > 100 µM | 59.5 µM | 58.7 µM | 54.8 µM | 70 µM | > 100 µM | 61.2 µM | 66.1 µM | 75.9 µM |
| S=C(NC1=NCC(CN2CCN(c3ccccc3)CC2)O1)Nc1ccccc1 (centres undefined) | > 100 µM | > 100 µM | 97.5 µM | > 100 µM | > 100 µM | > 100 µM | > 100 µM | > 100 µM | > 100 µM | > 100 µM | > 100 µM |
| O=C(NCCC1([N+](=O)[O-])CCN(C(=O)c2ccccc2)CC1)c1ccccc1 | > 100 µM | > 100 µM | > 100 µM | > 100 µM | > 100 µM | > 100 µM | 87.8 µM | > 100 µM | > 100 µM | > 100 µM | > 100 µM |
| C1CCC2(CC1)O[C@@H]1[C@@H](O2)[C@@H](O[C@H]2O[C@@H]3COC4(CCCCC4)O[C@H]3[C@@H]3OC4(CCCCC4)O[C@@H]23)O[C@@H]2COC3(CCCCC3)O[C@@H]12 | > 100 µM | > 100 µM | > 100 µM | > 100 µM | > 100 µM | > 100 µM | > 100 µM | > 100 µM | > 100 µM | > 100 µM | > 100 µM |
| CC(=O)OCCOCn1c2c(c(=S)[nH]c1=O)CCC2 | > 100 µM | > 100 µM | > 100 µM | > 100 µM | > 100 µM | > 100 µM | > 100 µM | > 100 µM | > 100 µM | > 100 µM | > 100 µM |
| COC(=O)CCC(=O)NC1=C(NCc2ccccc2)C(=O)c2ccccc2C1=O | > 100 µM | 50 µM | > 100 µM | > 100 µM | 34.9 µM | 29.6 µM | 34.1 µM | 76.1 µM | > 100 µM | > 100 µM | > 100 µM |
| Nc1nc(Cl)c(N)c(NCC2(CO)CC(OCc3ccccc3)C2)n1 (centres undefined) | > 100 µM | > 100 µM | > 100 µM | > 100 µM | > 100 µM | > 100 µM | > 100 µM | > 100 µM | > 100 µM | > 100 µM | > 100 µM |
| COC(=O)/C=C\n1c(C)cc(=O)[nH]c1=O | > 100 µM | > 100 µM | > 100 µM | > 100 µM | > 100 µM | > 100 µM | > 100 µM | > 100 µM | > 100 µM | > 100 µM | > 100 µM |
| COC(=O)CCC(=O)NC1=C(Nc2ccc(OC)cc2)C(=O)c2ccccc2C1=O | 25.8 µM | 24.3 µM | 32.1 µM | 65.8 µM | 3.53 µM | 3.44 µM | 16.1 µM | 28 µM | 29 µM | > 85.2 µM | 38.3 µM |
| CCCCc1ccc(Nc2nc3c(ncn3C3CC(O)C(CN=[N+]=[N-])O3)c(=O)[nH]2)cc1 (centres undefined) | > 100 µM | > 100 µM | > 100 µM | > 100 µM | > 100 µM | > 100 µM | > 100 µM | > 100 µM | > 100 µM | > 100 µM | > 100 µM |
| COC(=O)C(Cc1c(C2Nc3ccccc3C2CC(NC(=O)CNC(C)=O)C(=O)OC)[nH]c2ccccc12)NC(=O)CNC(C)=O (centres undefined) | > 100 µM | > 100 µM | > 100 µM | > 100 µM | > 100 µM | > 100 µM | > 100 µM | > 100 µM | > 100 µM | > 100 µM | > 100 µM |
| CC[C@]12C=CCN3CC[C@@]4(c5cc(Br)c(OC)cc5N(C)[C@H]4[C@@](O)(C(=O)NN)[C@@H]1O)[C@@H]32 | > 100 µM | > 100 µM | > 100 µM | > 100 µM | > 100 µM | > 100 µM | > 100 µM | > 100 µM | > 100 µM | > 100 µM | > 100 µM |
